Test results reported in US9714275B2, “Cancer antigen” (Cadila Pharmaceuticals Ltd., priority 2011, dated 2017).

Columns and labels:
Format in all cases: cell-based
Mia-Pa-Ca-2 cells = test: Protein profile (SDS-PAGE) of treated pancreatic cancer cells; conditions: Mw 1:500, cisplatin 5 μg/ml, paclitaxel 150 μg/ml, gemcitabine 800 nm; serum free media, 37° C.; vs untreated cell profile
Procedure: (§1) The Mia-Pa-Ca-2 cells were treated with Mw Cells in ratio 1:500, cisplatin at 5 μg/ml, paclitaxel at 150 μg/ml, and gemcitabine at 800 nm. The treatment was carried out in serum free media at 37° C. The cells were lysed and SDS-PAGE was run to obtain proteomic profile. Thus obtained profiles were overlapped with the untreated cell protein profile. The protein profile was noticed for each treatment. The differently expressed protein was identified at 45 KDa.
45 KDa protein is commonly over expressed protein when pancreatic cancer cells are treated with Mw, cisplatin, paclitaxel, gemcitabine, or combination there of.

B16 melanoma cells = test: Protein profile (SDS-PAGE) of treated melanoma cells; conditions: cisplatin 5 μg/ml, paclitaxel 150 μg/ml, gemcitabine 800 nm; serum free media, 37° C.; vs untreated cell profile
Procedure: as §1, with “B16 melanoma” for “Mia-Pa-Ca-2”, “with,” for “with Mw Cells in ratio 1:500,”, “μg/ml,and” for “μg/ml, and”, “36” for “45”
36 KDa protein is commonly expressed protein when melanoma cells are treated with, cisplatin, paclitaxel, gemcitabine, or combination there of.

[1] = tested on: Lung cancer cell lines (A549 and L132); test: Protein profile (SDS PAGE and Western blot) of Mw treated lung cancer cell lines; conditions: Mw/cells 1:100, 4 hours at 37° C.; vs untreated cell profile
Procedure: Different Lung cancer cell lines (A549 and L132) were treated with Mw/cells in the ratio of 1:100. Each treatment group contained 4×10E6 cells. Cells treated with Mw were incubated for 4 hours at 37° C. After treatment, cells were pelleted and supernatant was discarded. Cells were then resuspended in DPBS (400 μl). Cells were then sonicated for 15 minutes with pulse of 10 seconds on and 20 seconds off. The lysate obtained was estimated for the protein content using BCA Protein assay and protein was normalized to load 30 μg protein in each well. This was followed by 12% reducing SDS PAGE and Western blot analysis to obtain protein profile and humoral response. Thus obtained profile was compared with untreated cell protein profile.

| Compound | commonly over expressed protein after treatment (SDS-PAGE band) (Mia-Pa-Ca-2 cells) [KDa] | commonly expressed protein after treatment (SDS-PAGE band) (B16 melanoma cells) [KDa] | common protein in both treated cell lines [1] [KDa] |
| --- | --- | --- | --- |
| N.N.[Cl][Pt][Cl] [cisplatin] | 45 | 36 |  |
| Nc1ccn([C@@H]2O[C@H](CO)[C@@H](O)C2(F)F)c(=O)n1 [gemcitabine] | 45 | 36 |  |
| CC(=O)O[C@H]1C(=O)[C@@]2(C)[C@H]([C@H](OC(=O)c3ccccc3)[C@]3(O)C[C@H](OC(=O)[C@H](O)[C@@H](NC(=O)c4ccccc4)c4ccccc4)C(C)=C1C3(C)C)[C@]1(OC(C)=O)CO[C@@H]1C[C@@H]2O [paclitaxel] | 45 | 36 |  |
| Mycobacterium w [Mw] | 45 |  | 43 |
